Source: paper PMC6268492, “Synthesis and Antiangiogenic Activity of Novel Gambogic Acid Derivatives” (Molecules, 2012)
Read-outs that look alike come from different tables or passages of the source.

Assays:
A549 = test: MTT assay, cell proliferation; type: cell-based; conditions: 24 h, read-out: IC50, inhibition of cell proliferation
Procedure: (§1) HepG2, HCT116, HeLa and LO2 cell lines were cultured in DMEM containing 10% fetal bovine serum (FBS), 100 IU/mL penicillin and 100 µg/mL streptomycin; A549 and K562 cell lines were cultured in RPMI 1640 medium containing 10% fetal bovine serum (FBS), 100 IU/mL penicillin and 100 µg/mL streptomycin; Human umbilical vein endothelial cells (HUVECs) were cultured on gelatin-coated culture flasks in M-199 medium with 20% fetal bovine serum (FBS), 2 ng/mL VEGF, 10 ng/mL basic FGF, 100 IU/mL penicillin, and 100 μg/mL streptomycin; all of them were obtained from the American Type Culture Collection (ATCC) and all cell lines were incubated in an atmosphere of 5% CO2 at 37 °C.
(§2) Cells were treated with various concentrations of compound in 96-well culture plates for 24 h in final volumes of 200 μL (5 × 10^3 cells/well). Then 20 μL of MTT solution (5 mg/mL) was added to each well, and cells were incubated for an additional 3 h. Then the medium was carefully removed, and precipitates were dissolved in 150 μL of DMSO, shaken mechanically for 30 min, and then absorbance values at a wavelength of 570 nm were taken on a spectrophotometer (Molecular Devices, Sunnyvale, CA, USA). Values were calculated using percentage of growth versus untreated control. The IC50 was defined as the concentration that caused 50% inhibition of cell proliferation, and was calculated by SAS statistical software.

HCT116 = test: MTT assay, cell proliferation; type: cell-based; conditions: read-out: IC50, inhibition of cell proliferation
Procedure: as §1, §2

HeLa = test: MTT assay, cell proliferation; type: cell-based; conditions: 24 h, read-out: IC50, inhibition of cell proliferation
Procedure: as §1, §2

HepG2 = test: MTT assay, cell proliferation; type: cell-based; conditions: 24 h, read-out: IC50, inhibition of cell proliferation
Procedure: as §1, §2

K562 = test: MTT assay, cell proliferation; type: cell-based; conditions: 24 h, read-out: IC50, inhibition of cell proliferation
Procedure: as §1, §2

HUVEC = test: MTT assay, cell proliferation; type: cell-based, Human; conditions: 24 h, read-out: IC50, inhibition of cell proliferation
Procedure: Inhibiting the proliferation of ECs is another important strategy for antiangiogenesis. […] As the exposure time of these derivatives was 24 h in the migration assay and 6 h in the tube formation assay, the effect of the incubation for 24 h in the presence of these compounds on HUVECs proliferation was then tested. Cell viability was assessed by the MTT method. We can see from Table 4 that these compounds had different antiproliferative activities.
as §1, §2

LO2 = test: MTT assay, cytotoxicity; type: cell-based; conditions: read-out: IC50, inhibition of cell proliferation
Procedure: as §1, §2

[1] = test system: transgenic fli-1: enhanced GFP zebrafish embryos; test: Zebrafish embryo assay: antiangiogenic effects; type: in vivo, zebrafish (Danio rerio); conditions: zebrafish embryos
Procedure: As stated previously, zebrafish is regarded as a powerful tool in the study of human diseases. […] In this study, all GA derivatives were incubated with the transgenic friend leukemia integration-1 (fli-1): enhanced GFP zebrafish embryos which carried a fli-1 promoter which can drive the expression of GFP in the whole endothelium.
Figure 1 Effects on neovascularization in zebrafish embryos. The transgenic fli-1: enhanced GFP zebrafish embryos in embryo water (0.2 g/L of instant ocean salt in distilled water) incubated with 1 μM of compounds at 6 h postfertilization (hpf) for 24 h. Zebrafish embryos were imaged (Imager.Z1, magnification: left, 40×; right, 100×).
Using transgenic fli-1: enhanced GFP zebrafish embryos, we investigated the effects of all compounds on angiogenesis. […] At about 6 h post fertilization (hpf), the embryos were sorted in the 6-well plate (six embryos/well), removing dead and unhealthy embryos. Then the embryos were treated with the indicated concentrations of compounds which were added into embryo water. After incubation for 24 or 48 h, the embryos were anesthetized using 0.05% 2-phenoxyethanol in embryo water, quantified and photographed.

| Compound | IC50 (A549) [µM] | IC50 (HCT116; 24 h) [µM] | IC50 (HeLa) [µM] | IC50 (HepG2) [µM] | IC50 (K562) [µM] | IC50 (HUVEC) [µM] | IC50 (LO2; 24 h) [µM] | IC50 (A549; Homo sapiens) [µM] | IC50 (HCT116; Homo sapiens, HCT-116, 24 h) [µM] | IC50 (HeLa; Homo sapiens) [µM] | IC50 (HepG2; Homo sapiens) [µM] | IC50 (K562; Homo sapiens) [µM] | IC50 (HUVEC; Homo sapiens) [µM] | IC50 (LO2; Homo sapiens, L02, 24 h) [µM] | antiangiogenic rates ([1]; 1 μM) | inhibition in vivo at 2.5 µM ([1]; Danio rerio, 2.5 μM, vs vehicle (0.05% DMSO), read-out: Anti-angiogenic phenotype) [%] | inhibition in vivo at 10 µM ([1]; Danio rerio, 10 μM, vs vehicle (0.05% DMSO), read-out: Anti-angiogenic phenotype) [%] |
| --- | --- | --- | --- | --- | --- | --- | --- | --- | --- | --- | --- | --- | --- | --- | --- | --- | --- |
| 3-Ethanonephenyl gambogate [Compound 11] | 3.31 ± 0.45 | 3.13 ± 0.3 | 3.31 ± 0.24 | 3.64 ± 0.53 | 2.09 ± 0.19 | 3.48 ± 0.18 | 3.94 ± 0.19 |  |  |  |  |  |  |  |  |  |  |
| CC(C)=CCCC1(C)C=Cc2c(O)c3c(c(CC=C(C)C)c2O1)OC12C(=CC4CC1C(C)(C)OC2(C/C=C(/C)C(=O)Oc1ccc(C)c([N+](=O)[O-])c1)C4=O)C3=O (stereo not drawn) [Compound 1, 4-Methyl-3-nitrophenyl gambogate] |  |  |  |  |  |  |  | 43.5 ± 3.92 | 25.5 ± 1.79 | 32.9 ± 1.69 | 30.8 ± 2.76 | 10.2 ± 0.48 | 45.2 ± 2.64 |  |  |  |  |
| CC(C)=CCCC1(C)C=Cc2c(O)c3c(c(CC=C(C)C)c2O1)OC12C(=CC4CC1C(C)(C)OC2(C/C=C(/C)C(=O)Oc1c(Br)ccc(F)c1F)C4=O)C3=O (stereo not drawn) [Compound 2, 6-Bromo-2,3-difluorophenyl gambogate] |  |  |  |  |  |  |  | 49.1 ± 5.16 | 45.3 ± 4.2 | 57 ± 0.62 | 41.4 ± 3.52 | 16.1 ± 1.74 | 31.9 ± 1.27 |  |  |  |  |
| C=CCc1ccc(OC(=O)/C(C)=C\CC23OC(C)(C)C4CC(C=C5C(=O)c6c(O)c7c(c(CC=C(C)C)c6OC542)OC(C)(CCC=C(C)C)C=C7)C3=O)c(OC)c1 (stereo not drawn) [Compound 3, 4-Allyl-2-methoxyphenyl gambogate] |  |  |  |  |  |  |  | 38 ± 3.1 | 18.7 ± 0.97 | 13.1 ± 0.77 | 28.8 ± 2.84 | 8.18 ± 1.22 | 52.7 ± 1.15 |  |  |  |  |
| CC(=O)c1ccc(OC(=O)/C(C)=C\CC23OC(C)(C)C4CC(C=C5C(=O)c6c(O)c7c(c(CC=C(C)C)c6OC542)OC(C)(CCC=C(C)C)C=C7)C3=O)c([N+](=O)[O-])c1 (stereo not drawn) [Compound 5, 2-Nitro-4-ethanonephenyl gambogate] |  |  |  |  |  |  |  | 5.53 ± 0.4 | 5.47 ± 0.24 | 6.37 ± 0.11 | 9.45 ± 1.42 | 2.03 ± 0.2 | 4.39 ± 0.27 | 4.03 ± 0.34 |  |  |  |
| CC(C)=CCCC1(C)C=Cc2c(O)c3c(c(CC=C(C)C)c2O1)OC12C(=CC4CC1C(C)(C)OC2(C/C=C(/C)C(=O)Oc1cc2ccccc2oc1=O)C4=O)C3=O (stereo not drawn) [Compound 6, Coumarin-3-gambogate] |  |  |  |  |  |  |  | 19.7 ± 2.62 | 14.5 ± 1.22 | 33.3 ± 1.83 | 25.8 ± 1.76 | 5.47 ± 0.15 | 14.6 ± 0.34 | > 20 |  |  |  |
| CC(C)=CCCC1(C)C=Cc2c(O)c3c(c(CC=C(C)C)c2O1)OC12C(=CC4CC1C(C)(C)OC2(C/C=C(/C)C(=O)Oc1ccc2ccc(=O)oc2c1)C4=O)C3=O (stereo not drawn) [Compound 7, Coumarin-7-gambogate] |  |  |  |  |  |  |  | 15.4 ± 2.57 | 6 ± 0.4 | 16.1 ± 0.55 | 10.8 ± 1.1 | 2.5 ± 0.12 | 10.9 ± 0.72 | 8.28 ± 0.33 |  |  |  |
| CC(C)=CCCC1(C)C=Cc2c(O)c3c(c(CC=C(C)C)c2O1)OC12C(=CC4CC1C(C)(C)OC2(C/C=C(/C)C(=O)Oc1cccc([N+](=O)[O-])c1)C4=O)C3=O (stereo not drawn) [Compound 8, 3-Nitrophenyl gambogate] |  |  |  |  |  |  |  | > 80 | 66.4 ± 1.1 | > 80 | > 80 | 17.9 ± 1.38 | 77.5 ± 3.65 |  |  |  |  |
| CC(C)=CCC/C(C)=C/COC(=O)/C(C)=C\CC12OC(C)(C)C3CC(C=C4C(=O)c5c(O)c6c(c(CC=C(C)C)c5OC431)OC(C)(CCC=C(C)C)C=C6)C2=O (stereo not drawn) [Compound 10, Geraniol gambogate] |  |  |  |  |  |  |  | > 80 | > 80 | > 80 | > 80 | > 80 | > 80 |  |  |  |  |
| CC(C)=CCCC1(C)C=Cc2c(O)c3c(c(CC=C(C)C)c2O1)OC12C(=CC4CC1C(C)(C)OC2(C/C=C(/C)C(=O)Oc1cccc(C#N)c1)C4=O)C3=O (stereo not drawn) [Compound 12, 3-Cyanophenyl gambogate] |  |  |  |  |  |  |  | 10.7 ± 0.26 | 5.57 ± 0.26 | 7.1 ± 1.43 | 7.8 ± 0.11 | 1.79 ± 0.08 | 7.58 ± 1.36 | 5.15 ± 1.19 |  |  |  |
| COc1ccc(OC(=O)/C(C)=C\CC23OC(C)(C)C4CC(C=C5C(=O)c6c(O)c7c(c(CC=C(C)C)c6OC542)OC(C)(CCC=C(C)C)C=C7)C3=O)cc1 (stereo not drawn) [Compound 13, 4-Methoxyphenyl gambogate] |  |  |  |  |  |  |  | 66.8 ± 4.59 | 17.5 ± 1.59 | > 80 | 60.5 ± 4.24 | 8.05 ± 0.28 | 27.7 ± 2.77 |  |  |  |  |
| CC(C)=CCCC1(C)C=Cc2c(O)c3c(c(CC=C(C)C)c2O1)OC12C(=CC4CC1C(C)(C)OC2(C/C=C(/C)C(=O)Oc1cccc(C)c1[N+](=O)[O-])C4=O)C3=O (stereo not drawn) [Compound 14, 3-Methyl-2-nitrophenyl gambogate] |  |  |  |  |  |  |  | > 80 | 34.8 ± 1.84 | > 80 | 40.6 ± 2.75 | 22.6 ± 0.53 | 42 ± 2.76 | 70.8 ± 2.47 |  |  |  |
| CC(C)=CCCC1(C)C=Cc2c(O)c3c(c(CC=C(C)C)c2O1)OC12C(=CC4CC1C(C)(C)OC2(C/C=C(/C)C(=O)Oc1cccc(C=O)c1)C4=O)C3=O (stereo not drawn) [Compound 15, 3-Formylphenyl gambogate] |  |  |  |  |  |  |  | 33 ± 1.5 | 6.8 ± 0.78 | 62.6 ± 3.12 | 10.85 ± 0.06 | 6.11 ± 0.39 | 13.6 ± 1.16 | 14.8 ± 1.19 |  |  |  |
| CC(C)=CCCC1(C)C=Cc2c(O)c3c(c(CC=C(C)C)c2O1)OC12C(=CC4CC1C(C)(C)OC2(C/C=C(/C)C(=O)Oc1ccccc1Br)C4=O)C3=O (stereo not drawn) [Compound 17, 2-Bromophenyl gambogate] |  |  |  |  |  |  |  | > 80 | 33 ± 1.27 | > 80 | 61.9 ± 2.69 | 27 ± 1.41 | 29.9 ± 1.44 | 72.8 ± 2.84 |  |  |  |
| COCCc1ccc(OC(=O)/C(C)=C\CC23OC(C)(C)C4CC(C=C5C(=O)c6c(O)c7c(c(CC=C(C)C)c6OC542)OC(C)(CCC=C(C)C)C=C7)C3=O)cc1 (stereo not drawn) [Compound 18, 4-(2-Methoxyethyl)phenyl gambogate] |  |  |  |  |  |  |  | 66.2 ± 1.65 | 2.45 ± 0.15 | > 80 | 6.45 ± 0.37 | 7.52 ± 0.83 | 10.4 ± 1.08 | 15.2 ± 0.72 |  |  |  |
| CC(C)=CCCC1(C)C=Cc2c(O)c3c(c(CC=C(C)C)c2O1)OC12C(=CC4CC1C(C)(C)OC2(C/C=C(/C)C(=O)Oc1ccc(Br)cc1)C4=O)C3=O (stereo not drawn) [Compound 19, 4-Bromophenyl gambogate] |  |  |  |  |  |  |  | > 80 | 70.2 ± 3.06 | > 80 | > 80 | > 80 | 68 ± 4 | > 80 |  |  |  |
| CCc1ccc(OC(=O)/C(C)=C\CC23OC(C)(C)C4CC(C=C5C(=O)c6c(O)c7c(c(CC=C(C)C)c6OC542)OC(C)(CCC=C(C)C)C=C7)C3=O)cc1 (stereo not drawn) [Compound 21, 4-Ethylphenyl gambogate] |  |  |  |  |  |  |  | > 80 | > 80 | > 80 | > 80 | > 80 | 70.5 ± 4.86 | > 80 |  |  |  |
| CC(C)=CCCC1(C)C=Cc2c(O)c3c(c(CC=C(C)C)c2O1)OC12C(=CC4CC1C(C)(C)OC2(C/C=C(/C)C(=O)Oc1ccc(Br)c(F)c1F)C4=O)C3=O (stereo not drawn) [Compound 24, 4-Bromo-2,3-difluorophenyl gambogate] |  |  |  |  |  |  |  | > 80 | > 80 | > 80 | > 80 | > 80 | > 80 | > 80 |  |  |  |
| COc1ccc(-c2csc(NC(=O)/C(C)=C\CC34OC(C)(C)C5CC(C=C6C(=O)c7c(O)c8c(c(CC=C(C)C)c7OC653)OC(C)(CCC=C(C)C)C=C8)C4=O)n2)cc1 (stereo not drawn) [Compound 31, 4-(4-Methoxyphenyl)thiazol-2-gambogamide] |  |  |  |  |  |  |  | 61.6 ± 1.73 | 18.9 ± 1.34 | 57.9 ± 2.6 | 49.2 ± 4.31 | 13.7 ± 0.56 | 30.2 ± 2.04 |  | inactive | < 25 | 25 to 50 |
